The subject of data set [1] is lung fibroblasts from IPF patients. The note with it: cited from earlier work.
The conditions of data set [2]: cited from earlier work.
The conditions of data set [3]: cited from earlier work. This is another data set of the same source.
A further data set concerns β-catenin. The experiment in a line: Western blots for p-Ser552 β-catenin and total β-catenin from HLFs. The format is cell-based, human. The note with it: HLFs stimulated with TGFβ; FIG. 4A. The protocol: (§1) HLFs, IPF donor cells, A549 cells lysates or lung tissue lysates were prepared in RIPA buffer. The patient lung biopsies study utilized biological specimens and data provided by the Lung Tissue Research Consortium (LTRC) supported by the National Heart, Lung, and Blood Institute (NHLBI). For Western blots, 1:1000-diluted mouse-anti-N-Cadherin (BD Biosciences), rabbit-anti-OB-Cadherin (Santa Cruz), mouse-anti-SMA (Sigma), mouse-anti-vimetin (DACO), mouse-anti-E-Cadherin (Abram), rabbit-anti-β-catenin (Cell Signaling Technology), anti-rabbit-p-[…]-β-catenin (Cell Signaling Technology), rabbit-anti-β-actin (Santa Cruz) and mouse-anti-GAPDH (Santa Cruz) were used in combination with HRP-conjugated secondary antibodies (GE Healthcare). Western blots were developed using an ECL system (GE Healthcare). Quantification of the intensity of the bands was performed using NIH ImageJ software.
To assess the regulation of β-catenin in response to a fibrotic stimulus in HLFs, cells were stimulated with TGFβ and the expression levels and phosphorylation state of β-catenin were assessed by Western blot (FIG. 4A). There was no difference in the expression levels of total β-catenin in TGFβ-stimulated cells. However, when the cell lysates were probed with a phospho-specific β-catenin antibody, we found an increase in the phosphorylation of Ser552 upon TGFβ treatment. […]

In another data set the test system is N-Cadherin. Kind of data set: N-Cadherin expression in HLFs (RT-PCR, western blot). The note with it: TGFβ treatment, low and high cell density; FIG. 1A. The format is cell-based, human. The protocol:
(§2) Total RNA was extracted from HLFs, transcribed into cDNA and used for RT-PCR. Validated Taqman N-Cadherin, OB-Cadherin, vimentin or E-Cadherin primers and probes were purchased from Applied Biosystems.
(§3) Small interfering RNAs against N-Cadehrin and OB-Cadherin were purchased from Applied Biosystems. Knockdown efficiencies were tested by using real-time RT-PCR and confirmed to be 95% at the time of stimulation in the different functional assays.
as §1
On the technique in general: In western blotting, separated proteins are transferred to a membrane and probed.

In data set [4] the test system is primary human lung fibroblasts (HLFs). Kind of data set: Fibroblast-to-myofibroblast transition (FMT), western blot for SMA. Format: cell-based. The protocol: Primary human lung fibroblasts (Promocell) were maintained in DMEM supplemented with 10% heat-inactivated FBS, 1 mM Na-pyruvate and 1% Penicillin/Streptomycin and trypsinised every 4 days. Sub-confluent HLFs were electroporated via nucleofection (Amaxa electroporation system) with siRNAs.
as §1
To assess functional responses, non-transfected HLFs or HLFs transfected with siRNAs were plated in full growth medium and left to grow overnight, starved for 24 h in serum-free medium and stimulated with different growth factors for a further 24 h. For FMT assessment, the HLF cells were stimulated with 5 ng/ml TGFβ (R&D Systems) or 10 μg/ml human N-Cadherin-Fc (R&D Systems), for collagen secretion—with 1 ng/ml TGFβ, for proliferation—with FBS, 10 ng/ml PDGF-BB (R&D Systems) or 10 ng/ml FGF-2 (R&D Systems) and for migration—with 10 μg/ml human N-Cadherin-Fc (R&D Systems) or human OB-Cadherin-Fc (R&D Systems). […] The level of FMT was evaluated by western blot for SMA. Collagen secretion was measured by Sircol collagen assay (Biocolor Life Science). Proliferation assay was performed using the DELFIA system (PerkinElmer), and migration was assessed with the Oris System (Platypus Technology).

In a further data set the test system is OB-Cadherin. The experiment in a line: OB-Cadherin expression in HLFs (RT-PCR, western blot). The format is cell-based, human. The note with it: TGFβ treatment of HLFs; FIG. 1A. The protocol:
as §2, §3, §1

Data set [5] concerns primary human lung fibroblasts (HLFs). The experiment in a line: HLF migration, in vitro wound closure assay (Oris System). Format: cell-based. The note with it: 10 μg/ml N-Cadherin-Fc; FIG. 3A. The protocol:
To assess functional responses, non-transfected HLFs or HLFs transfected with siRNAs were plated in full growth medium and left to grow overnight, starved for 24 h in serum-free medium and stimulated with different growth factors for a further 24 h. For FMT assessment, the HLF cells were stimulated with 5 ng/ml TGFβ (R&D Systems) or 10 μg/ml human N-Cadherin-Fc (R&D Systems), for collagen secretion—with 1 ng/ml TGFβ, for proliferation—with FBS, 10 ng/ml PDGF-BB (R&D Systems) or 10 ng/ml FGF-2 (R&D Systems) and for migration—with 10 μg/ml human N-Cadherin-Fc (R&D Systems) or human OB-Cadherin-Fc (R&D Systems). In the loss of function FMT experiment, 50 μg/ml N-Cadherin neutralizing antibody (clone GC-4, Sigma) was used. The level of FMT was evaluated by western blot for SMA. Collagen secretion was measured by Sircol collagen assay (Biocolor Life Science). Proliferation assay was performed using the DELFIA system (PerkinElmer), and migration was assessed with the Oris System (Platypus Technology).
Increased migration is a hallmark of myofibroblasts and is thought to contribute to the pathology of IPF. Therefore, we investigated the effects of N-Cadherin gain- and loss-of function on the migratory potential of HLFs. We performed an in vitro wound closure assay with cells treated with the recombinant N-Cadherin-Fc chimera or with N-Cadherin siRNA.

Data set [6] relates to A549 epithelial alveolar type II cells. Kind of data set: Epithelial-to-mesenchymal transition (EMT) in A549 cells (RT-PCR, western blot, E-Cadherin immunocytochemistry). The note with it: recombinant N-Cadherin-Fc, immunocytochemistry for E-Cadherin. Format: cell-based, human. The protocol: A549 epithelial alveolar type II cells (ATCC) were maintained in DMEM supplemented with 10% heat-inactivated FBS and 1% Penicillin/Streptomycin and trypsinised every 4 days.
For EMT assessment, A549 cells were simulated with 5 ng/ml TGFβ (R&D Systems), a combination of 5 ng/ml TGFβ (R&D Systems) and 2.5 ng/ml IL-1β (R&D Systems) or N-Cadherin-Fc (R&D Systems). The level of EMT was evaluated either by RT-PCR and Western blot for vimentin and E-Cadheirn or by immunocytochemistry for E-Cadherin. In the loss of function EMT experiment, N-Cadherin neutralizing tool antibody or IgG isotype control were used in the presence of 18 μg/ml N-cadheirn-Fc (R&D Systems).

Setting [7] is: phase II trial with IPF patients.
Where [8] appears, read: more recent clinical trial, discontinued in 2007.

Here are results for four molecules from US20150050240A1, “TREATMENT OF FIBROSIS” (NOVARTIS AG, priority 2012, published 2015).

Regarding `Cc1ccc(=O)n(-c2ccccc2)c1` [Pirfenidone], in [1], the collagen synthesis entry is given as “reduces collagen synthesis” and the “mitogenic effects of pro-fibrotic cytokines” value is “blocks mitogenic effects”. In [2] (setting [7]), the chest radiographs result is “did not improve”, the pulmonary functional tests entry is “stabilized or improved in some patients”, the side effects entry is “no severe side effects” and the survival rates entry is recorded as “improved”. In addition, the lung function result in [2] (phase III clinical trial, IPF patients) was “might positively affect lung function”.
Turning to interferon, in data set [3] (IPF patients refractory to corticosteroid or immunosuppressive therapy), the clinical improvement result is listed as “showed no improvement”. In addition, in data set [3] (setting [8]), the clinical trial outcome was “ineffectiveness” and the “patients death rates compared with placebo” value is on record as “slightly increased”.
In the case of “TGFβ: TGFβ (R&D Systems), pro-fibrotic stimulus used to induce FMT”, in the data set on β-catenin, the “expression levels of total β-catenin” value is given as “no difference” and the “phosphorylation of Ser552 of β-catenin” value is reported as “increase”. Further, the N-Cadherin expression result in the data set with N-Cadherin is reported as “upregulated”. For the same molecule, the SMA expression entry in data set [4] (TGFβ stimulation, low and high cell density) was “marked increase”. For the same molecule, the OB-Cadherin expression entry with OB-Cadherin was “upregulated”.

B1: N-Cadherin-Fc: human N-Cadherin-Fc fusion protein (R&D Systems) that mimics N-Cadherin homophilic interactions and activates N-Cadherin signalling (protein)
chain: DWVIPPINLPENSRGPFPQELVRIRSDRDKNLSLRYSVTGPGADQPPTGIFIINPISGQLSVTKPLDREQIARFHLRAHAVDINGNQVENPIDIVINVIDMNDNRPEFLHQVWNGTVPEGSKPGTYVMTVTAIDADDPNALNGMLRYRIVSQAPSTPSPNMFTINNETGDIITVAAGLDREKVQQYTLIIQATDMEGNPTYGLSNTATAVITVTDVNDNPPEFTAMTFYGEVPENRVDIIVANLTVTDKDQPHTPAWNAVYRISGGDPTGRFAIQTDPNSNDGLVTVVKPIDFETNRMFVLTVAAENQVPLAKGIQHPPQSTATVSVTVIDVNENPYFAPNPKIIRQEEGLHAGTMLTTFTAQDPDRYMQQNIRYTKLSDPANWLKIDPVNGQITTIAVLDRESPNVKNNIYNATFLASDNGIPPMSGTGTLQIYLLDINDNAPQVLPQEAETCETPDPNSINITALDYDIDPNAGPFAFDLPLSPVTIKRNWTITRLNGDFAQLNLKIKFLEAGIYEVPIIITDSGNPPKSNISILRVKVCQCDSNGDCTDVDRIVGAGLGTGA
modifications: left off: a dimerising Fc or GST
On to B1, for which, in data set [5], the “HLF migration into the wound” value is “significant increase”. The “EMT, measured by decreased E-Cadherin signal” value in [6] is on record as “significant EMT”. For the same molecule, the SMA expression entry in data set [4] (HLFs treated with 10 μg/ml N-Cadherin-Fc for 24 h, FIG. 2A) is “significant increase”. Also, the “additive or synergistic effect on SMA expression” value in [4] (combination of TGFβ and N-Cadherin-Fc, 24 h) was “did not observe an additive or synergistic effect”.
